Patent US20040191326A1, “Taste-masking vehicle for coated oxazolidinone particles” (priority 2003, published 2004)
Several values for one entry are separate records, joined by “and”; a condition that tells them apart may be missing. Equal values may be shown once. Read-outs that look alike come from different tables or passages of the source.

Experiments:
[1] = Viscosity measurements (Bohlin Rheometer), screening and optimization phases; assay type: physicochemical; conditions: sorbitol 9.9 molal, fructose 16.6 molal, sucrose 5.3 molal (highest concentrations studied)
Experimental: 2. Viscosity Measurements
In the screening and optimization phases, described below, viscosity measurements were made using a Bohlin Rheometer, under the following conditions: a 10.0 pascal sheer stress and a continuous, single sweep type at a temperature of 25.0° C.

[2] = Water activity (Pawkit water activity meter); assay type: physicochemical; conditions: sorbitol 9.9 molal, fructose 16.6 molal, sucrose 5.3 molal
Experimental: A Pawkit water activity meter uses a dielectric humidity sensor to measure the water activity (aw) of a sample. The unit is accurate to ±0.02 aw. The water activity meter was calibrated, using a 6.0 molal NaCl solution, before each new set of measurements was taken. Each sample was measured in duplicate.

[3] = cited from earlier work

| Viscosity of solution [1] | Water activity of solution [2] | Compound | Dosage with laxative effect ([3]; adults) | Dosage with laxative effect ([3]; children) |
| --- | --- | --- | --- | --- |
| 48 cps | 0.81 | OC[C@@H](O)[C@@H](O)[C@H](O)[C@@H](O)CO [sorbitol] | ≥ 20 grams/day | greater than 0.5 g/kg body weight |
| 119 cps | 0.86 | OC[C@H]1O[C@@](CO)(O[C@H]2O[C@H](CO)[C@@H](O)[C@H](O)[C@H]2O)[C@@H](O)[C@@H]1O [sucrose] |  |  |

| Compound | Viscosity of solution [1] | Water activity of solution [2] | Dosage with laxative effect ([3]; adults) | Dosage with laxative effect ([3]; children) |
| --- | --- | --- | --- | --- |
| O=C(CO)[C@@H](O)[C@H](O)[C@H](O)CO [fructose] | 429 cps and 439 cps | 0.70 |  |  |
